Source: patent US20050266060A1, “Transdermal delivery system for treatment of cognitive disorders” (priority 2004, published 2005)

Key:
[1] = skin irritancy and skin penetration of mixture with oleic acid; conditions: 50:50 mixture with oleic acid
From the text: Ethyl oleate gives a better performance still and is optimal in combination with propionic acid.

[2] = tested on: cholinesterase; assay: inhibition of cholinesterase activity; assay type: biochemical
From the text: The phenserine compounds of the invention may be synthesized using processes known in the art. For example, U.S. Pat. Nos. 6,495,700, 5,409,948, 5,171,750, 5,378,723, and 5,998,460, and WO 03/082270 A1, all of which are hereby incorporated by reference in their entirety, describe the preparation of the phenserine compounds of the invention and enzyme inhibition assays that may be used to test compounds of the invention.

[3] = tested on: beta amyloid precursor protein; assay: production of beta amyloid precursor protein
[4] = in vitro penetration across human epidermis in glass diffusion cells; assay type: in vitro ADME
Experimental: Preparation of skin membranes: Human skin is obtained post mortem and may be stored at −20° C. until needed. When required the tissue is allowed to thaw at room temperature and the subcutaneous fat removed. Epidermal sheets are separated from full-thickness skin by immersing in water at 60° C. for 45 seconds and gently peeling away the epidermis. Alternatively, skin may be obtained from another source, such as a mouse or rat.
Absorption studies are performed in vitro using glass diffusion cells, having epidermal membranes mounted in Franz type diffusion cells. For example, Franz type diffusion cells having a cross-sectional area of 2.54 cm^2. The cells may be housed in a water bath to maintain a desired temperature. The upper surface of the membrane is exposed to donor solution and the under surface of the membrane is bathed by continuously stirred receptor fluid. Receptor fluid may be a phosphate buffered saline solution, or any physiological solution.
Membrane integrity may be assayed using methods well known in the art prior to conducting a diffusion assay. […]
Results from absorption experiments are typically plotted as cumulative amount absorbed against time. The steady state penetration rate, or flux, J (μg/cm^2/hr), is typically calculated by linear regression analysis from the linear regions of an absorption plot. […]

[5] = clinical studies of oral phenserine compound; assay type: in vivo, human; conditions: oral dose of about 10 and/or 15 mg bid
Experimental: Clinical studies indicate that an oral dose of a phenserine compound of about 10 and/or 15 mg bid may produce a beneficial treatment for cognitive disorders, such as AD. […] Therefore, the dosage of a phenserine compound may be reduced when administered transdermally.

[6] = biological target: T1, AChE (Rattus norvegicus, UniProt P37136); assay: time-dependent AChE inhibition in rats after phenserine administration
T1 sequence (P37136 32-614): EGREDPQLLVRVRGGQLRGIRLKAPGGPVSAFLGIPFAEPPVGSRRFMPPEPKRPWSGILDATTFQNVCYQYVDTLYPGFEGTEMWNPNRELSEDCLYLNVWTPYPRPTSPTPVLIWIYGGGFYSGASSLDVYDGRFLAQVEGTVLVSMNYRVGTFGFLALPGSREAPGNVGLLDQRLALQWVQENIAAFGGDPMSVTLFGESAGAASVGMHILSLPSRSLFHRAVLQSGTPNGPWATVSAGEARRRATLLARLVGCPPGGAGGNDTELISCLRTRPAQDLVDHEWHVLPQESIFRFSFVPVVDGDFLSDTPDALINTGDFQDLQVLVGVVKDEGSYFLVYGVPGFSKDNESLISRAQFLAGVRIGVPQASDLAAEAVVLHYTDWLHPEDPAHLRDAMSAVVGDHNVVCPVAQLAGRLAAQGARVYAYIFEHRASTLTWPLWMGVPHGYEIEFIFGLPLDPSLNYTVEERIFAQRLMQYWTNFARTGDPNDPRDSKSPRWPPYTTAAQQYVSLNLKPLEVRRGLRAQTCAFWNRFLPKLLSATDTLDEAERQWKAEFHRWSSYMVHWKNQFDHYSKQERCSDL
Experimental: (§1) To determine the time-dependent effects of phenserine on cholinergic function, AChE activity, brain and plasma drug levels and brain extracellular ACh concentrations were measured in rats before and after phenserine administration.

[7] = tested on: brain extracellular ACh; assay: striatal in vivo microdialysis in conscious, freely-moving rats
Experimental: as §1

[8] = chemical stability of phenserine in vehicles; assay type: physicochemical
Experimental: The time-course profiles for phenserine penetration across human epidermis from the formulations of the invention are conducted. […] Therefore, breakdown and degradation products, for example, by hydrolysis and subsequent oxidation, are assayed in each vehicle. The vehicles of the invention, including propionic acid and/or oleic acid, are assayed for the chemical stability of a phenserine compound.

[9] = solubility of phenserine or its salt; assay type: physicochemical; conditions: propionic acid as co-solvent with isopropyl myristate and/or oleic acid
Experimental: To assay solubility, between 10-20 mg of phenserine is weighed into a 1 ml volumetric flask. An initial 1 ml volume of a chosen vehicle is added to the flask and the mixture agitated, for example, ultrasonically for at least 30 minutes.

[10] = brain and plasma drug levels in rats after phenserine i.v. dosing
Experimental: as §1

CNC(=O)Oc1ccc2c(c1)[C@]1(C)CCN(C)[C@@H]1N2C [physostigmine]
penetration through the skin [1]: very efficient
skin irritancy [1]: non-irritant

CN1CC[C@]2(C)c3cc(OC(=O)Nc4ccccc4)ccc3N(C)C12 (stereo partly drawn) [POSIPHEN, (3aR)-1,3a,8-trimethyl-1,2,3,3a,8,8a-hexahydropyrrolo[2,3-b]indol-5-yl phenylcarbamate]
inhibition of cholinesterase activity [2]: does not inhibit cholinesterase activity
production of beta amyloid precursor protein [3]: reduces the production of beta amyloid precursor protein

CN1CC[C@@]2(C)c3cc(OC(=O)Nc4ccccc4)ccc3N(C)C12 (single isomer, unassigned) [phenserine]
transdermal flux rate ([4]; 25% in propionic acid/isopropyl myristate): sufficiently high transdermal flux rates
transdermal flux rate ([4]; 25% in propionic acid/oleic acid): sufficiently high transdermal flux rates
signs of cholinergic over stimulation [5]: does not cause overt signs of cholinergic over stimulation
bioavailability ([6]; rat, plasma, po): 100%
half-life of AChE inhibition ([6]; rats, i.v. dosing): > 495 min
inhibition of AChE ([6]; rats, i.v. dosing): > 70%
rise in brain ACh levels [7]: > 3 fold
inhibition of cholinesterase activity [2]: long-acting inhibitor of cholinesterase
effect of co-solvent on stability ([8]; propionic acid as co-solvent with isopropyl myristate and/or oleic acid): increase
chemical stability in vehicle ([8]; vehicles of the invention, such as propionic acid and/or oleic acid): chemically stable
effect of co-solvent on solubility [9]: increase
production of beta amyloid precursor protein [3]: reduction in β-APP production
Kp ([10]; rat, brain / plasma, iv): 10
half-life ([10]; rat, brain, iv): 8.5 min
half-life ([10]; rat, plasma, iv): 12.6 min
time to peak drug level ([10]; rats, i.v. dosing): ≤ 5 min
